According to ChEMBL document CHEMBL1201862, “PubChem BioAssay data set” (2004):
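Following 48 hours of exposure in 96-well plates, responses at five concentrations were used to interpolate endpoints linearly. Here, GI50 denotes the concentration required for 50% inhibition of growth.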 Active and inactive are the calls of the source. Cut-off read from the data, not from the text of the source: active = GI50 up to about 1.1 µM and inactive = higher.

Columns and labels:
Assay in all cases: NCI tumour cell line growth inhibition, 48 h
MDA-MB-435 = tested on: MDA-MB-435
K562 = tested on: K562
UO-31 = tested on: UO-31
OVCAR-4 = tested on: OVCAR-4
M14 = tested on: M14
HOP-92 = tested on: HOP-92
SK-MEL-2 = tested on: SK-MEL-2
BT-549 = tested on: BT-549
MDA-N = tested on: MDA-N
Malme-3M = tested on: Malme-3M
OVCAR-3 = tested on: OVCAR-3
HCT-116 = tested on: HCT-116
Hs-578T = tested on: Hs-578T
786-0 = tested on: 786-0
EKVX = tested on: EKVX
PC-3 = tested on: PC-3
U-251 = tested on: U-251
MOLT-4 = tested on: MOLT-4
RPMI-8226 = tested on: RPMI-8226
HL-60 = tested on: HL-60

SMILES	GI50 (MDA-MB-435)	GI50 (K562)	GI50 (UO-31)	GI50 (OVCAR-4)	GI50 (M14)	GI50 (HOP-92)	GI50 (SK-MEL-2)	GI50 (BT-549)	GI50 (MDA-N)	GI50 (Malme-3M)	GI50 (OVCAR-3)	GI50 (HCT-116)	GI50 (Hs-578T)	GI50 (786-0)	GI50 (EKVX)	GI50 (PC-3)	GI50 (U-251)	GI50 (MOLT-4)	GI50 (RPMI-8226)	GI50 (HL-60)
CCOc1ccccc1Nc1ccc(N)cc1S(=O)(=O)O	> 100 µM (inactive)	> 100 µM (inactive)	> 100 µM (inactive)	> 100 µM (inactive)	> 100 µM (inactive)	> 100 µM (inactive)	> 100 µM (inactive)	> 100 µM (inactive)	> 100 µM (inactive)	> 100 µM (inactive)	> 100 µM (inactive)	> 100 µM (inactive)	> 100 µM (inactive)	> 100 µM (inactive)	> 100 µM (inactive)	> 100 µM (inactive)	> 100 µM (inactive)	> 100 µM (inactive)		
CCC(=O)Nc1ncnc2ncn(C(=O)CC)c12	> 100 µM (inactive)	> 100 µM (inactive)	> 100 µM (inactive)	> 100 µM (inactive)	> 100 µM (inactive)	> 100 µM (inactive)	> 100 µM (inactive)	> 100 µM (inactive)	> 100 µM (inactive)	> 100 µM (inactive)	> 100 µM (inactive)	> 100 µM (inactive)	> 100 µM (inactive)	> 100 µM (inactive)	> 100 µM (inactive)	> 100 µM (inactive)	> 100 µM (inactive)	> 100 µM (inactive)	> 100 µM (inactive)	
COCCCN(Cc1cc(OC)c(OC)c(OC)c1)C(=S)Nc1cccc(Cl)c1	20.9 µM (inactive)	15.7 µM (inactive)	26.1 µM (inactive)	24.4 µM (inactive)	23.7 µM (inactive)	20.2 µM (inactive)	23.1 µM (inactive)	22.6 µM (inactive)	19.2 µM (inactive)		41.6 µM (inactive)	17.2 µM (inactive)		26.5 µM (inactive)	12.3 µM (inactive)	25.1 µM (inactive)	31.8 µM (inactive)	13.4 µM (inactive)	14.9 µM (inactive)	17.7 µM (inactive)
N#CS/C(Cl)=C(/C(Cl)=C(Cl)Cl)[N+](=O)[O-]		40.7 µM (inactive)	24.5 µM (inactive)	48.3 µM (inactive)	34.4 µM (inactive)			36.8 µM (inactive)	34.6 µM (inactive)	20.7 µM (inactive)	21.9 µM (inactive)	25.4 µM (inactive)	16.6 µM (inactive)	28.2 µM (inactive)	> 100 µM (inactive)	35.2 µM (inactive)	35.8 µM (inactive)	36.3 µM (inactive)		29.1 µM (inactive)
O=C(O)c1ccc2[nH]c(=O)oc2c1	> 100 µM (inactive)	> 100 µM (inactive)			> 100 µM (inactive)		> 100 µM (inactive)	> 100 µM (inactive)	> 100 µM (inactive)	> 100 µM (inactive)	> 100 µM (inactive)	> 100 µM (inactive)	> 100 µM (inactive)	> 100 µM (inactive)	> 100 µM (inactive)	> 100 µM (inactive)	> 100 µM (inactive)	> 100 µM (inactive)	> 100 µM (inactive)	> 100 µM (inactive)
Cc1c(N)nc([C@H](CC(N)=O)NC[C@H](N)C(N)=O)nc1C(=O)N[C@H](C(=O)N[C@H](C)[C@@H](O)[C@H](C)C(=O)N[C@H](C(=O)NCCc1nc(-c2nc(C(=O)NCCC[S+](C)C)cs2)cs1)[C@@H](C)O)C(OC1OC(CO)C(O)C(O)C1OC1OC(CO)C(O)C(OC(N)=O)C1O)c1c[nH]cn1 (stereo partly specified)	19.6 µM (inactive)	8.45 µM (inactive)	0.478 µM (active)	4.92 µM (inactive)	1.56 µM (inactive)	0.0841 µM (active)	13.7 µM (inactive)	10.2 µM (inactive)	14.8 µM (inactive)	0.356 µM (active)	4.67 µM (inactive)	0.415 µM (active)		1.05 µM (active)	17.8 µM (inactive)	7.73 µM (inactive)	0.834 µM (active)	1.28 µM (inactive)	17 µM (inactive)	5.73 µM (inactive)
NC(C(F)(F)F)(C(F)(F)F)P(=O)(Cc1ccccc1)Cc1ccccc1	> 100 µM (inactive)	> 100 µM (inactive)	> 100 µM (inactive)	> 100 µM (inactive)	> 100 µM (inactive)		> 100 µM (inactive)	> 100 µM (inactive)	> 100 µM (inactive)	> 100 µM (inactive)	> 100 µM (inactive)	> 100 µM (inactive)	58.1 µM (inactive)	66.1 µM (inactive)	> 100 µM (inactive)	> 100 µM (inactive)	> 100 µM (inactive)	> 100 µM (inactive)	> 100 µM (inactive)	> 100 µM (inactive)
COc1ccc(C2SCC(=O)N2NC(=O)C(C)Oc2ccccc2Cl)cc1 (stereo unspecified)	33 µM (inactive)	47.4 µM (inactive)	70.5 µM (inactive)	60.7 µM (inactive)	41.9 µM (inactive)	23.7 µM (inactive)	18.7 µM (inactive)	85.7 µM (inactive)				40.3 µM (inactive)	> 100 µM (inactive)	98.6 µM (inactive)	83.2 µM (inactive)	33.7 µM (inactive)	38 µM (inactive)	27 µM (inactive)	32.4 µM (inactive)	17.1 µM (inactive)
CSc1nc(=S)[nH]c2[nH]nc(C)c12	> 100 µM (inactive)	> 100 µM (inactive)	> 100 µM (inactive)	> 100 µM (inactive)	> 100 µM (inactive)		> 100 µM (inactive)	> 100 µM (inactive)	> 100 µM (inactive)	> 100 µM (inactive)	> 100 µM (inactive)	> 100 µM (inactive)	> 100 µM (inactive)	> 100 µM (inactive)	> 100 µM (inactive)	> 100 µM (inactive)	> 100 µM (inactive)	> 100 µM (inactive)	> 100 µM (inactive)	> 100 µM (inactive)
O=P1(Oc2ccc(Cl)cc2)OCCS1 (stereo unspecified)			> 100 µM (inactive)		> 100 µM (inactive)	> 100 µM (inactive)	> 100 µM (inactive)	> 100 µM (inactive)	> 100 µM (inactive)	> 100 µM (inactive)		> 100 µM (inactive)	> 100 µM (inactive)	> 100 µM (inactive)	> 100 µM (inactive)	> 100 µM (inactive)	> 100 µM (inactive)		> 100 µM (inactive)	80.7 µM (inactive)
O=C1c2ccccc2NC2C(O)c3ccccc3N12 (stereo unspecified)	17.7 µM (inactive)	13.9 µM (inactive)	40.8 µM (inactive)	25.5 µM (inactive)	81.3 µM (inactive)	> 100 µM (inactive)	52 µM (inactive)	58.2 µM (inactive)		3.98 µM (inactive)	37 µM (inactive)	30.5 µM (inactive)	25.1 µM (inactive)	> 100 µM (inactive)	35.4 µM (inactive)	35.4 µM (inactive)	30 µM (inactive)	21 µM (inactive)	10.1 µM (inactive)	
CC1(C)OCN(c2ccc(Cl)cc2)Cn2c1nc1ccccc12	0.611 µM (active)	0.904 µM (active)	9.79 µM (inactive)	51.4 µM (inactive)		> 80.9 µM (inactive)	> 54 µM (inactive)	> 100 µM (inactive)	3.05 µM (inactive)	> 100 µM (inactive)	> 51.9 µM (inactive)	15.3 µM (inactive)		> 89.9 µM (inactive)	63 µM (inactive)	1.94 µM (inactive)	22.3 µM (inactive)	11.6 µM (inactive)	19 µM (inactive)	11.2 µM (inactive)
CN(C)C(=S)N/N=C\C(=N/NC(=S)N(C)C)c1ccccc1	34.9 µM (inactive)	4.68 µM (inactive)	3.69 µM (inactive)	5.74 µM (inactive)	5.51 µM (inactive)	3.91 µM (inactive)	3.96 µM (inactive)	> 22.2 µM (inactive)	> 61.8 µM (inactive)		2.7 µM (inactive)	3.52 µM (inactive)	4.57 µM (inactive)	7.33 µM (inactive)	7.36 µM (inactive)		3.96 µM (inactive)	> 100 µM (inactive)	4.68 µM (inactive)	
COc1cccc(/N=N/C(=N/NC(=O)c2ccc(C)cc2)c2ccc(N(CCC#N)CCC#N)cc2OC)c1	> 100 µM (inactive)	> 100 µM (inactive)	> 100 µM (inactive)	> 100 µM (inactive)	> 100 µM (inactive)	> 100 µM (inactive)	> 100 µM (inactive)	> 100 µM (inactive)	> 100 µM (inactive)	> 100 µM (inactive)	> 100 µM (inactive)	> 100 µM (inactive)	> 100 µM (inactive)	> 100 µM (inactive)	22.9 µM (inactive)	> 100 µM (inactive)	> 100 µM (inactive)	> 100 µM (inactive)	> 100 µM (inactive)	
O=C(O)C1OC1C(=O)O (stereo unspecified)	> 100 µM (inactive)	> 100 µM (inactive)	> 100 µM (inactive)	> 100 µM (inactive)	> 100 µM (inactive)	> 100 µM (inactive)	> 100 µM (inactive)	> 100 µM (inactive)	> 100 µM (inactive)	> 100 µM (inactive)	> 100 µM (inactive)	> 100 µM (inactive)	> 100 µM (inactive)	> 100 µM (inactive)	> 100 µM (inactive)		> 100 µM (inactive)		> 100 µM (inactive)	
